Ends that are not written are not given here.
How the values were obtained:
[1] = test system: SD rats with bleomycin-induced pulmonary fibrosis; assay: Bleomycin-induced pulmonary fibrosis animal model; format: in vivo; conditions: for Survival rate (%): bleomycin 5 mg/kg intratracheal, polypeptides 10 mg/kg subcutaneous twice a day for 14 days, positive drug Nintedanib intragastric once a day, model group 57.1%; for content of HYP in lung tissues, difference from model group / content of TGF-β1 in serum, difference from model group: polypeptides 10 mg/kg s.c. twice a day, Nintedanib 25 mg/kg intragastric once a day, 14 days
Description: Source and strain: clean SD rats, provided by Comparative Medicine Center of Yangzhou University (laboratory animal production license: SCXK (Su) 2012-0004); Certification of Using of Laboratory Animal: SYXK (Su) 2012-0035).
SD rats were anesthetized by intraperitoneal injection of 1 mL/100 g 4% chloral hydrate. After anesthesia, the rats were fixed and their necks were disinfected by using cotton with 75% alcohol. The skin of the rat neck was longitudinally cut with scissors, and the fascia and muscle were longitudinally bluntly torn with tweezers to expose the trachea. A syringe was inserted into the trachea to inject 5 mg/kg bleomycin, while a blank group was injected with an equal amount of normal saline. Then a rat plate was quickly erected and rotated, the rats' breathing was observed, the neck wound was sterilized after rotation and was sewn, and an amoxicillin anti-inflammatory drug was sprinkled on the suture. After the operation, the rats were put back into a dry and clean cage for resting, waiting was performed for awakening. The rats were awakened after about 1-2 hours, and then fed normally. On the 7th day after modeling, modeling group animals randomly fell into a model group, a Nintedanib positive drug group, polypeptide I, II, III and IV dosage groups, and a normal control group, and the groups were administered separately for an administration cycle of 14 days. Living situations of rats were observed every day and their weights were weighed. After administration for 14 days, the eyeballs were removed and blood was taken, the rats were dissected, and lungs were taken. The content of TGF-β1 in serum and the content of HYP in lung tissues were detected.

[2] = test system: SD rats with CCl4-induced hepatic fibrosis; assay: CCl4-induced hepatic fibrosis animal model; format: in vivo; conditions: CCl4 8 weeks, polypeptides 6 mg/kg s.c. once a day, colchicine intragastric 5 times/week
Description: Source and strain: SPF level, SD rats, provided by Shanghai Xipuer-Bikai laboratory Animal Co., Ltd. (laboratory animal license: SCXK (hu) 2013-0016)
There were 10 rats in each group. Modeling was performed on the rats. Each group other than the blank group was injected with 40% CCl4 intraperitoneally twice a week, the first injection was performed at 3 mL/kg, and then administration was performed at 2 mL/kg. Administration was performed for 8 weeks, and a total of 16 injections were provided to induce hepatic fibrosis. After the intraperitoneal injection of CCl4 for the fourth time, polypeptide therapy was started on the next day, and administration was performed by subcutaneous injection once a day until the end of induction. After the intraperitoneal injection of CCl4 for the fourth time, colchicine was administrated on the next day at 200 μg/kg, 5 times a week, and intragastric administration therapy was implemented. After induction for 8 weeks, the administration was stopped. On the second day, the SD rats were dissected, blood was taken, and the liver tissue was taken and stored in a refrigerator at −80° C. for later use. The expressions of AST and ALT in serum and HYP in the rat liver tissue were detected.

[3] = test system: SD rats with renal fibrosis; assay: Renal fibrosis model (ureter ligation); format: in vivo; conditions: 6 mg/kg s.c. twice a day, 14 days
Description: Clean grade male SD rats, purchased from Nanjing Qinglong Mountain Animal Farm, and weighed 180-200 g at the time of purchase, 190-210 g at the beginning of modeling, and 180-200 g at the beginning of administration.
A renal fibrosis animal model was established. SD rats were anesthetized with 4% chloral hydrate, injected with 1 mL/100 g intraperitoneally, fixed to an operation board, and sterilized in an operation area for later use. […] Muscular layers and abdominal walls were sewed layer by layer, the suture was disinfected with alcohol. After SD rats woke up, the rats were put into a cage for feeding. In the blank group, ureter was not ligated, and other steps were the same.
Then, the animals fell into a blank group, a model group, and polypeptide administration groups, with 10 animals in each group, and the administration was started on the second day after the operation, and was performed for 14 days. After administration for 14 days, blood was taken and supernatant was taken to detect the content of TGF-β1 in serum.

[4] = test system: mice with myocardial fibrosis; assay: Isoprenaline-induced myocardial fibrosis model; format: in vivo; conditions: BALB/c mice, isoprenaline 5 mg/kg 7 days; 12 mg/kg s.c. twice a day
Description: 1. Experimental Mice: 10-Week-Old Male BALB/c Mice (with an Average Weight of 20 g).
In the model group, the experimental mice were injected with isoprenaline (ISO) (5 mg/kg) subcutaneously on the back of the mice every day for 7 consecutive days, and the mice were injected with normal saline subcutaneously (200 μL/mouse) every day. In the blank group, normal saline was injected subcutaneously (200 μL/mouse) every day. While a model was made, polypeptide drugs were administrated for treatment by subcutaneous injection. After the 8th day, blood was taken and was centrifuged, the supernatant was taken, and the content of TGF-β1 in serum was detected.

mice with skin fibrosis = assay: Bleomycin-induced skin fibrosis model; format: in vivo, C57/BL black mice; conditions: C57/BL mice, bleomycin s.c. 28 days; 10 mg/kg s.c. twice a day
Description: Male C57/BL black mice aged 6-8 weeks, purchased from Nanjing Qinglong Mountain Animal Farm. Bleomycin (10 μg/mL) was injected subcutaneously every day for 28 days to form skin fibrosis. During the modeling period, the administration groups were given polypeptide drugs twice a day for treatment. After modeling, the mice were killed on the next day, and the skin tissue of the mouse back was taken to detect the content of HYP in the skin tissue. [table]

Streptococcus pneumoniae = assay: Mouse pneumonia model, bacterial pneumonia; format: in vivo, BALB/C mice; parameters: unit not given here; conditions: nasal drip, average values + standard deviation
Source text: (§1) A mouse pneumonia model was successfully established by using a nasal drip method. BALB/C mice with a body weight of 18-24 g were selected, and then anesthetized with ether on day 0, day 1 and day 2, respectively, prepared Streptococcus pneumoniae bacteria solution, adenovirus concentrated solution, Mycoplasma pneumoniae, Chlamydia pneumoniae, protozoa and pneumonia fungi were slowly dropped into the nasal cavity of the mice, so that the bacteria solutions entered the trachea and bronchi, and the bacteria solutions were prevented from flowing into the esophagus during the operation to avoid inactivation of the bacteria solutions, so that the mouse pneumonia model was established. After the model was successfully established, the polypeptide according to the present disclosure was administered, as shown in FIG. 9 and Table 7. […] The experimental results are represented on the basis of average values+standard deviation.

adenovirus = assay: Mouse pneumonia model, viral pneumonia; format: in vivo, BALB/C mice; parameters: unit not given here; conditions: nasal drip, average values + standard deviation
Source text: as §1

Mycoplasma pneumoniae = assay: Mouse pneumonia model, mycoplasma pneumonia; format: in vivo, BALB/C mice; parameters: unit not given here; conditions: nasal drip, average values + standard deviation
Source text: as §1

Chlamydia pneumoniae = assay: Mouse pneumonia model, chlamydia pneumonia; format: in vivo, BALB/C mice; parameters: unit not given here; conditions: nasal drip, average values + standard deviation
Source text: as §1

protozoa = assay: Mouse pneumonia model, protozoal pneumonia; format: in vivo, BALB/C mice; parameters: unit not given here; conditions: nasal drip, average values + standard deviation
Source text: as §1

pneumonia fungi = assay: Mouse pneumonia model, fungal pneumonia; format: in vivo, BALB/C mice; parameters: unit not given here; conditions: nasal drip, average values + standard deviation
Source text: as §1

[5] = test system: multiple pulmonary infections; assay: Mouse pneumonia model, pneumonia caused by pulmonary infections; format: in vivo, BALB/C mice; parameters: unit not given here; conditions: nasal drip, average values + standard deviation
Source text: as §1

[6] = bleomycin-induced pulmonary fibrosis

Sequence | Survival rate (%) [1] | content of HYP in lung tissues, difference from model group [1, 6] | content of TGF-β1 in serum, difference from model group [1, 6] | content of AST in serum, difference from model group [2] | content of HYP in the liver tissue, difference from model group [2] | content of TGF-β1 in serum, difference from model group [3] | content of TGF-β1 in serum, difference from model group [4] | content of HYP in the skin tissue, difference from model group (mice with skin fibrosis) | Inhibitory effect on pulmonary infections: Bacterial pneumonia (Streptococcus pneumoniae) | Inhibitory effect on pulmonary infections: Viral pneumonia (adenovirus) | Inhibitory effect on pulmonary infections: Mycoplasma pneumonia (Mycoplasma pneumoniae) | Inhibitory effect on pulmonary infections: Chlamydia pneumonia (Chlamydia pneumoniae) | Inhibitory effect on pulmonary infections: Protozoal pneumonia (protozoa) | Inhibitory effect on pulmonary infections: Fungal pneumonia (pneumonia fungi) | Inhibitory effect on pulmonary infections: Pneumonia caused by pulmonary infections [5] | reduction of HYP in lung tissues compared with the positive drug ([1]; bleomycin-induced pulmonary fibrosis, comparison with Nintedanib)
PRCYCGEGGGGIVRRADRAAVPGGGGRGD (cysteine pairing not given here) [Polypeptide IV] | 92.9% | highly significantly different from the model group (** P<0.01) | highly significantly different from the model group (** P<0.01) | highly significantly different from the model group (*** P<0.001) | highly significantly different from the model group (*** P<0.001) | highly significantly different from the model group (*** P<0.001) | highly significantly different from the model group (*P<0.05) | highly significantly different from the model group (*P<0.05) | 43.69 ± 8.66 | 70.33 ± 9.27 | 41.20 ± 7.30 | 45.86 ± 5.22 | 62.16 ± 3.28 | 53.22 ± 4.14 | 50.99 ± 6.88 | –
PRCYRGEGGGGIVRRADRAAVPGGGGRGD [Polypeptide II] | 78.6% | highly significantly different from the model group (*** P<0.001) | highly significantly different from the model group (*** P<0.001) | highly significantly different from the model group (*** P<0.001) | highly significantly different from the model group (*** P<0.001) | highly significantly different from the model group (*** P<0.001) | highly significantly different from the model group (*P<0.05) | highly significantly different from the model group (*P<0.05) | 41.25 ± 9.48 | 50.27 ± 8.08 | 45.69 ± 5.72 | 45.81 ± 5.21 | 63.60 ± 6.16 | 60.32 ± 3.07 | 63.15 ± 5.87 | better effects than the positive drug
